Reference: ChEMBL document CHEMBL1156034, “The first pharmacophore model for potent NF-kappaB inhibitors” (Bioorg Med Chem Lett, 2009)
pIC50: −log10 of the molar value. Where a SMILES comes first, the peptide text is derived from it. The star is where a group is joined. Cbz = O=C(OCc1ccccc1)*

Assay: Inhibition of NF-kappaB activation

SMILES | pIC50
Clc1ccc(CNc2ncnc3ccccc23)cc1 | 5.74
Oc1ccc2ncnc(NCCc3ccc(Cl)cc3)c2c1 | 6.50
O=[N+]([O-])c1ccc2ncnc(NCCc3ccc(Cl)cc3)c2c1 | 5.82
Clc1ccc(CCNc2ncnc3ccc(Cl)cc23)cc1 | 6.46
O=[N+]([O-])c1ccc2c(NCCc3ccc(Cl)cc3)ncnc2c1 | 5.75
Nc1ccc2ncnc(NCCc3ccc(Cl)cc3)c2c1 | 6.75
Nc1ccc2c(NCCc3ccc(Cl)cc3)ncnc2c1 | 5.66
Clc1ccc(CCNc2ncnc3ccccc23)cc1 | 6.20
Clc1ccc(CCNc2ncnc3ccc(Br)cc23)cc1 | 6.07
O=[N+]([O-])c1cc2c(NCCc3ccc(Cl)cc3)ncnc2cc1Cl | 5.04
O=C1c2ccc(O)cc2C(=O)N1c1c(Br)cccc1Br | 6.37
Cc1ccc(S(=O)(=O)Nc2cccc3cccnc23)c([N+](=O)[O-])c1 | 5.68
COc1cc(NS(=O)(=O)c2ccc(C)cc2N)c2ncccc2c1 | 6.00
Nc1ccccc1S(=O)(=O)Nc1cccc2cccnc12 | 5.70
Cc1ccc2cccc(NS(=O)(=O)c3ccccc3[N+](=O)[O-])c2n1 | 5.42
Cc1ccc2cccc(NS(=O)(=O)c3ccc(Cl)s3)c2n1 | 6.00
Cc1ccc2cccc(NS(=O)(=O)c3ccc(Br)s3)c2n1 | 5.85
O=S(=O)(Nc1cccc2cccnc12)c1cccs1 | 5.44
O=S(=O)(Nc1cccc2cccnc12)c1ccc(Cl)s1 | 5.89
Cc1ccc2cccc(NS(=O)(=O)c3ccccc3N)c2n1 | 5.55
Cc1ccc2cccc(NS(=O)(=O)c3ccc(C(F)(F)F)cc3[N+](=O)[O-])c2n1 | 5.96
COc1cc(NS(=O)(=O)c2ccc(C)cc2[N+](=O)[O-])c2ncccc2c1 | 5.68
COc1cnc2c3c(ccc2c1)-c1ccccc1S(=O)(=O)N3 | 5.60

SMILES | pIC50
O=[N+]([O-])c1ccccc1S(=O)(=O)Nc1cccc2cccnc12 | 5.49
O=S1(=O)Nc2c(ccc3cccnc23)-c2cc(F)ccc21 | 5.77
COc1ccc(S(=O)(=O)Nc2cccc3ccc(C)nc23)c([N+](=O)[O-])c1 | 6.00
Cc1ccc2c(c1)-c1ccc3cccnc3c1NS2(=O)=O | 6.22
O=S1(=O)Nc2c(ccc3cccnc23)-c2cc(C(F)(F)F)ccc21 | 6.00
COc1cc2cccnc2c2c1-c1cc(C)ccc1S(=O)(=O)N2 | 5.92
COc1ccc2c(c1)-c1ccc3ccc(C)nc3c1NS2(=O)=O | 5.60
Cc1ccc2ccc3c(c2n1)NS(=O)(=O)c1ccc(C(F)(F)F)cc1-3 | 5.92
COc1cc2ccc(C)nc2c2c1-c1cc(C)ccc1S(=O)(=O)N2 | 6.05
CC(C)c1cccc(C(C)C)c1N1C(=O)c2ccc(O)cc2C1=O | 6.28
O=S(=O)(Nc1cccc2cccnc12)c1ccc(Br)s1 | 5.96
Cc1ccc2cccc(NS(=O)(=O)c3cccc([N+](=O)[O-])c3)c2n1 | 6.05
Cc1ccc2ccc3c(c2n1)NS(=O)(=O)c1ccc(O)cc1-3 | 5.00
COc1ccc2c(c1)-c1ccc3cccnc3c1NS2(=O)=O | 6.00
O=[N+]([O-])c1cc(C(F)(F)F)ccc1S(=O)(=O)Nc1cccc2cccnc12 | 5.43
c1ccc(CCCNc2ncnc3ccccc23)cc1 | 5.62
O=S1(=O)Nc2c(ccc3cccnc23)-c2ccccc21 | 6.00
Cc1ccc([N+](=O)[O-])cc1S(=O)(=O)Nc1cccc2cccnc12 | 5.80
O=S1(=O)Nc2c(ccc3cccnc23)-c2cc(Cl)ccc21 | 5.96
Cc1ccc2ncnc(NCCc3ccc(Cl)cc3)c2c1 | 6.14
Nc1ccc2ncnc(NCCc3ccc(Oc4ccccc4)cc3)c2c1 | 7.96
O=[N+]([O-])c1ccc(S(=O)(=O)Nc2cccc3cccnc23)cc1 | 5.82
Nc1ccc2ncnc(NCCc3cccnc3)c2c1 | 5.08

SMILES | pIC50
Nc1ccc2ncnc(NCCc3ccc(O)cc3)c2c1 | 5.44
C#CCOc1ccc(CCNc2ncnc3ccc(N)cc23)cc1 | 7.40
CCOc1ccc(CCNc2ncnc3ccc(N)cc23)cc1 | 7.68
C=CCOc1ccc(CCNc2ncnc3ccc(N)cc23)cc1 | 7.92
CCCOc1ccc(CCNc2ncnc3ccc(N)cc23)cc1 | 7.70
CC(C)Oc1ccc(CCNc2ncnc3ccc(N)cc23)cc1 | 7.40
Nc1ccc2ncnc(NCCN3CCOCC3)c2c1 | < 5.00
Nc1ccc2ncnc(NCCC3CCCCC3)c2c1 | 6.16
Cc1ccc(CCNc2ncnc3ccc(N)cc23)cc1 | 6.68
Clc1ccc(Nc2ncnc3ccccc23)cc1 | < 5.00
CCCCCOc1ccc(CCNc2ncnc3ccc(N)cc23)cc1 | 8.70
COc1ccccc1CCNc1ncnc2ccc(N)cc12 | 6.81
Nc1ccc2ncnc(NCCc3ccc(Br)cc3)c2c1 | 6.68
Clc1ccc(CCNc2nccc3ccccc23)cc1 | < 5.00
CCCCCCOc1ccc(CCNc2ncnc3ccc(N)cc23)cc1 | 8.40
Nc1ccc2ncnc(NCCc3ccc(OCc4ccccn4)cc3)c2c1 [listing 1 of 2 here] | 7.92
Nc1ccc2ncnc(NCCc3cccc(Cl)c3)c2c1 | 6.41
Nc1ccc2ncnc(NCCc3ccc(F)cc3)c2c1 | 6.24
COc1ccc(CCNc2ncnc3ccc(N)cc23)cc1 | 7.05
CC(=O)Nc1ccc2ncnc(NCCc3ccc(Cl)cc3)c2c1 | 5.34
Nc1ccc2ncnc(NCCN3CCCCC3)c2c1 | < 5.00
NC(=O)c1ccc(CCNc2ncnc3ccc(N)cc23)cc1 | 5.13
Clc1ccc(CCNc2ccnc3ccccc23)cc1 | 5.86

SMILES | pIC50
Nc1ccc2ncnc(NCCc3ccc(OCc4ccccn4)cc3)c2c1 [listing 2 of 2 here] | 7.85
Clc1ccc(CCCNc2ncnc3ccccc23)cc1 | 5.85
COc1cccc(CCNc2ncnc3ccc(N)cc23)c1 | 6.68
COC(=O)C1[C@@H](O)[C@@]2(O)c3c(cc4c(c3OC)OCO4)O[C@@]2(c2ccc(OC)cc2)[C@@H]1c1ccccc1 (some centres not stated) | 6.61
Nc1ccc2ncnc(NCCc3ccc(OCc4ccc5ccccc5n4)cc3)c2c1 | 7.03
CC(=O)Nc1ccc(CCNc2ncnc3ccc(N)cc23)cc1 | 5.22
Clc1ccc(CCNc2ncnc3ccc(Oc4ccccc4)cc23)cc1 | 5.13
Nc1ccc2ncnc(NCCc3ccccc3)c2c1 | 6.51
Nc1cc2c(NCCc3ccc(Cl)cc3)ncnc2cc1Cl | 6.37
Nc1ccc2ncnc(NCCc3ccc(S(N)(=O)=O)cc3)c2c1 | < 5.00
Clc1ccc(CCNc2nncc3ccccc23)cc1 | < 5.00
Nc1ccc2ncnc(NCCN3CCCC3)c2c1 | 5.43
CCCCOc1ccc(CCNc2ncnc3ccc(N)cc23)cc1 | 7.96
Nc1ccc2ncnc(NCCc3ccccc3Cl)c2c1 | 6.60
CN(C)C(=O)c1ccc(CCNc2ncnc3ccc(N)cc23)cc1 | 5.59
COC(=O)C1[C@@H](O)[C@@]2(O)c3c(OC)cc(OC)cc3O[C@@]2(c2ccc3c(c2)OCO3)[C@@H]1c1ccccc1 (some centres not stated) | 6.50
COC(=O)C1[C@@H](O)[C@@]2(O)c3c(OC)cc(OC)cc3O[C@@]2(c2ccc(OC)cc2)[C@@H]1c1ccccc1 (some centres not stated) | 6.71
Cc1csc2ncnc(NC3Cc4ccc(C(=O)N5CCOCC5)cc4C3)c12 (configuration not stated) | 7.42
CC(C)c1cccc(C(C)C)c1N1C(=O)c2cccc(O)c2C1=O | 5.31
CC(C)c1cccc(C(C)C)c1N1C(=O)c2ccc(N)cc2C1=O | 4.53
COc1ccc([C@@]23Oc4cc(OC)cc(OC)c4[C@]2(O)[C@H](O)[C@H](C(N)=O)[C@H]3c2ccccc2)cc1 [DIDESMETHYLROCAGLAMIDE] | 7.36
CC(C)C[C@@H](C=O)NC(=O)[C@H](CC(C)C)NC(=O)[C@H](CC(C)C)NC(=O)OCc1ccccc1 [MG-132] (Cbz-Leu-Leu-Leu-aldehyde) | 6.15
COc1ccc([C@@]23Oc4cc(OC)cc(OC)c4[C@]2(O)[C@H](O)C[C@H]3c2ccccc2)cc1 [ROCAGLAOL] | 6.30
